This passage reports % of control, % of inhibition and % binding results from ChEMBL document CHEMBL5465560, “Selectivity Literature for EUbOPEN Chemogenomic Library” (2024).

Test [1] addresses Serine/threonine-protein kinase Nek7 (Homo sapiens) (UniProt Q8TDX7). The experiment in a line: Selectivity interaction (Kinase panel (Z-LYTE Assay)) EUB0001632a NEK7. Particulars: at 10 µM.
The target in test [2] is Myosin light chain kinase, smooth muscle (Homo sapiens, UniProt Q15746). The experiment in a line: Selectivity interaction (LanthaScreen Eu Kinase Binding Assay) EUB0001632a MYLK. Particulars: at 10 µM. On the technique in general: In TR-FRET formats the signal depends on donor and acceptor labels being close together.
In test [3] the target is T1, Serine/threonine-protein kinase Nek9 (Homo sapiens) (UniProt Q8TD19).
T1 sequence (whole entry): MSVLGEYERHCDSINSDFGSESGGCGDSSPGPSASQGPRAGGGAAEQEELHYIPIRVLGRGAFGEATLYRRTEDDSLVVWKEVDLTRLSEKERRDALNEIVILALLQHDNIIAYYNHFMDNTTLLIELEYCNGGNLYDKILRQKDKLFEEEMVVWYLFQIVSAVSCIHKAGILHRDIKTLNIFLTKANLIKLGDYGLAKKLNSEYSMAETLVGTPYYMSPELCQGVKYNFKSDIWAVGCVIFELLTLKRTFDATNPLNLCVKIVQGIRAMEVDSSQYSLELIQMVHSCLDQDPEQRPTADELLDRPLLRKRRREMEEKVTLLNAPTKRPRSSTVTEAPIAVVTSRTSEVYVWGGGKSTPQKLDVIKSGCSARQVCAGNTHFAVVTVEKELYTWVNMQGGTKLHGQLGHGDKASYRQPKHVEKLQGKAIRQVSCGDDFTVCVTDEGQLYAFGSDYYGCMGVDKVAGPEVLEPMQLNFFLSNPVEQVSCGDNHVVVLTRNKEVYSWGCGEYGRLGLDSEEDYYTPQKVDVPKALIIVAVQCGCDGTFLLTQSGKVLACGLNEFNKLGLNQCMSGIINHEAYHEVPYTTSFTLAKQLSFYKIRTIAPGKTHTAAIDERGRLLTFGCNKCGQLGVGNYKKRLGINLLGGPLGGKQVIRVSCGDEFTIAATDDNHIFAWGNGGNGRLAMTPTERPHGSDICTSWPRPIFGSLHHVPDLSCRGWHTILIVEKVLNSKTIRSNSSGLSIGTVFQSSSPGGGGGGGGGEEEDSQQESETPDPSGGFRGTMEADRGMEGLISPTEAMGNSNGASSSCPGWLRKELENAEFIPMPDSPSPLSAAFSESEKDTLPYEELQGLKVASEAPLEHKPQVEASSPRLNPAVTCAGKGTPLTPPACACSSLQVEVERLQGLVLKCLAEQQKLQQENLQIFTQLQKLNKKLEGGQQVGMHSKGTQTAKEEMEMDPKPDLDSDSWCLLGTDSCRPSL
Put plainly: Selectivity interaction (KinomeScan (DiscoverX)) EUB0000666a NEK9. Particulars: at 10 µM.

Test [4] deals with T2, Phosphatidylinositol 5-phosphate 4-kinase type-2 gamma (Homo sapiens) (UniProt Q8TBX8).
T2 sequence (whole entry): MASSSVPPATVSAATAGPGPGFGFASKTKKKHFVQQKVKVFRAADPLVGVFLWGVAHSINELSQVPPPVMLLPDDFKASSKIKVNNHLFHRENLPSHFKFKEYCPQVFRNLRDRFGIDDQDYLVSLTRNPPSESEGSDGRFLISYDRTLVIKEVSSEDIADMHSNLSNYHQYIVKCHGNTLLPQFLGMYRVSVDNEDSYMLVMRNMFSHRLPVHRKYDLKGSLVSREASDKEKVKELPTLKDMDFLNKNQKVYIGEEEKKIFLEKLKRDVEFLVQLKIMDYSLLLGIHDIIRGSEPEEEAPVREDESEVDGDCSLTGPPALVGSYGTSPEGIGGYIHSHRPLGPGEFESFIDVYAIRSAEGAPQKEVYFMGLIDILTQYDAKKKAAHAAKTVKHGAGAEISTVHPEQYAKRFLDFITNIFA
The experiment in a line: Selectivity interaction (KinomeScan (DiscoverX)) EUB0000229b PIP4K2C. Particulars: at 10 µM.

Test [5] concerns the target Serine/threonine-protein kinase PAK 2 (Homo sapiens) (UniProt Q13177). Put plainly: Selectivity interaction (KinomeScan (DiscoverX)) EUB0001079a PAK2. As to conditions: at 1 µM.
The target in test [6] is Glycogen synthase kinase-3 alpha (Homo sapiens, UniProt P49840). The experiment in a line: Selectivity interaction (Millipore kinase profiler) EUB0000124b GSK3A. Particulars: at 10 µM.
Test [7] addresses Mitogen-activated protein kinase 14 (Homo sapiens, UniProt Q16539). The experiment in a line: Selectivity interaction (KinomeScan (DiscoverX)) EUB0000695a MAPK14. As to conditions: at 100 nM.
The target of test [8] is T3, Dual specificity mitogen-activated protein kinase kinase 5 (Homo sapiens) (UniProt Q13163).
T3 sequence (whole entry): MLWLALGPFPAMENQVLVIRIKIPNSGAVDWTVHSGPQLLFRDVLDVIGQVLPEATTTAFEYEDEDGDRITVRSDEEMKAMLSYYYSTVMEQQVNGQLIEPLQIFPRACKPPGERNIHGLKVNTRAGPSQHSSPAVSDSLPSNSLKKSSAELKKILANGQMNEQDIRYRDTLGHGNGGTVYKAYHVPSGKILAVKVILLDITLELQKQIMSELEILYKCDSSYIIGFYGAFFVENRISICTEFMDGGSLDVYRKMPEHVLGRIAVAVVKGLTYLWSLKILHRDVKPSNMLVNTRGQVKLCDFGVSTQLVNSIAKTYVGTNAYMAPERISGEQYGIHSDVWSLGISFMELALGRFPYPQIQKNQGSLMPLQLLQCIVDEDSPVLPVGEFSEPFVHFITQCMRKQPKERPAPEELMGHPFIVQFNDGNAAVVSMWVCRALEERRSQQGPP
The experiment in a line: Selectivity interaction (KinomeScan (DiscoverX)) EUB0000595a MAP2K5. As to conditions: at 10 µM.

Sequence of Glycogen synthase kinase-3 alpha (P49840 2-483 limits assumed): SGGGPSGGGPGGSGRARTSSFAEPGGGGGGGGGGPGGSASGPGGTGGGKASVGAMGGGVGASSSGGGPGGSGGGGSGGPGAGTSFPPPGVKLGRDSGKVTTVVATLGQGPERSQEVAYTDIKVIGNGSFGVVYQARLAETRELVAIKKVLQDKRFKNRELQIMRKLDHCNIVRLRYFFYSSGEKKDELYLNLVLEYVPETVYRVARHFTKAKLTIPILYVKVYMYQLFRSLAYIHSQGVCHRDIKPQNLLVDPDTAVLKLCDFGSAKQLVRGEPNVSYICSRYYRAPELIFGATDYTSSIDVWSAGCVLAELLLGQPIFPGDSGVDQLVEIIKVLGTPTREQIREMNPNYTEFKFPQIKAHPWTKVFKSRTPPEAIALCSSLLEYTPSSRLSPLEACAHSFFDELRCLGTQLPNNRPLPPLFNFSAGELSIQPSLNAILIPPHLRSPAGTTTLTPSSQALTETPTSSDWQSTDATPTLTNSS
Sequence of Serine/threonine-protein kinase PAK 2 (Homo sapiens) (Q13177 whole entry): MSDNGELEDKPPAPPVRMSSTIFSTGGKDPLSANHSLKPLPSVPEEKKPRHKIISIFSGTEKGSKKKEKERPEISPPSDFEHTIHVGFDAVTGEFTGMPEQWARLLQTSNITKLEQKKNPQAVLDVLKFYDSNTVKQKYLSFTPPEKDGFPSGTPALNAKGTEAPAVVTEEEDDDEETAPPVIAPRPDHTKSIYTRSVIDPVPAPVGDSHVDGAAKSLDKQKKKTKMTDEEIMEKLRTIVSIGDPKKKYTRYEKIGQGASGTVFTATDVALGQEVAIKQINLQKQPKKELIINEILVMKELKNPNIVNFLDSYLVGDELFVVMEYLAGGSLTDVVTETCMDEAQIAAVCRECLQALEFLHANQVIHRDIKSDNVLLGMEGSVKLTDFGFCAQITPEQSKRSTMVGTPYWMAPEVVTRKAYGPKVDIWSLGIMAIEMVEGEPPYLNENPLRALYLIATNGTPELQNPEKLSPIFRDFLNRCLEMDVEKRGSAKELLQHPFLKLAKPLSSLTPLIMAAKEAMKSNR
Sequence of Myosin light chain kinase, smooth muscle (Q15746 whole entry): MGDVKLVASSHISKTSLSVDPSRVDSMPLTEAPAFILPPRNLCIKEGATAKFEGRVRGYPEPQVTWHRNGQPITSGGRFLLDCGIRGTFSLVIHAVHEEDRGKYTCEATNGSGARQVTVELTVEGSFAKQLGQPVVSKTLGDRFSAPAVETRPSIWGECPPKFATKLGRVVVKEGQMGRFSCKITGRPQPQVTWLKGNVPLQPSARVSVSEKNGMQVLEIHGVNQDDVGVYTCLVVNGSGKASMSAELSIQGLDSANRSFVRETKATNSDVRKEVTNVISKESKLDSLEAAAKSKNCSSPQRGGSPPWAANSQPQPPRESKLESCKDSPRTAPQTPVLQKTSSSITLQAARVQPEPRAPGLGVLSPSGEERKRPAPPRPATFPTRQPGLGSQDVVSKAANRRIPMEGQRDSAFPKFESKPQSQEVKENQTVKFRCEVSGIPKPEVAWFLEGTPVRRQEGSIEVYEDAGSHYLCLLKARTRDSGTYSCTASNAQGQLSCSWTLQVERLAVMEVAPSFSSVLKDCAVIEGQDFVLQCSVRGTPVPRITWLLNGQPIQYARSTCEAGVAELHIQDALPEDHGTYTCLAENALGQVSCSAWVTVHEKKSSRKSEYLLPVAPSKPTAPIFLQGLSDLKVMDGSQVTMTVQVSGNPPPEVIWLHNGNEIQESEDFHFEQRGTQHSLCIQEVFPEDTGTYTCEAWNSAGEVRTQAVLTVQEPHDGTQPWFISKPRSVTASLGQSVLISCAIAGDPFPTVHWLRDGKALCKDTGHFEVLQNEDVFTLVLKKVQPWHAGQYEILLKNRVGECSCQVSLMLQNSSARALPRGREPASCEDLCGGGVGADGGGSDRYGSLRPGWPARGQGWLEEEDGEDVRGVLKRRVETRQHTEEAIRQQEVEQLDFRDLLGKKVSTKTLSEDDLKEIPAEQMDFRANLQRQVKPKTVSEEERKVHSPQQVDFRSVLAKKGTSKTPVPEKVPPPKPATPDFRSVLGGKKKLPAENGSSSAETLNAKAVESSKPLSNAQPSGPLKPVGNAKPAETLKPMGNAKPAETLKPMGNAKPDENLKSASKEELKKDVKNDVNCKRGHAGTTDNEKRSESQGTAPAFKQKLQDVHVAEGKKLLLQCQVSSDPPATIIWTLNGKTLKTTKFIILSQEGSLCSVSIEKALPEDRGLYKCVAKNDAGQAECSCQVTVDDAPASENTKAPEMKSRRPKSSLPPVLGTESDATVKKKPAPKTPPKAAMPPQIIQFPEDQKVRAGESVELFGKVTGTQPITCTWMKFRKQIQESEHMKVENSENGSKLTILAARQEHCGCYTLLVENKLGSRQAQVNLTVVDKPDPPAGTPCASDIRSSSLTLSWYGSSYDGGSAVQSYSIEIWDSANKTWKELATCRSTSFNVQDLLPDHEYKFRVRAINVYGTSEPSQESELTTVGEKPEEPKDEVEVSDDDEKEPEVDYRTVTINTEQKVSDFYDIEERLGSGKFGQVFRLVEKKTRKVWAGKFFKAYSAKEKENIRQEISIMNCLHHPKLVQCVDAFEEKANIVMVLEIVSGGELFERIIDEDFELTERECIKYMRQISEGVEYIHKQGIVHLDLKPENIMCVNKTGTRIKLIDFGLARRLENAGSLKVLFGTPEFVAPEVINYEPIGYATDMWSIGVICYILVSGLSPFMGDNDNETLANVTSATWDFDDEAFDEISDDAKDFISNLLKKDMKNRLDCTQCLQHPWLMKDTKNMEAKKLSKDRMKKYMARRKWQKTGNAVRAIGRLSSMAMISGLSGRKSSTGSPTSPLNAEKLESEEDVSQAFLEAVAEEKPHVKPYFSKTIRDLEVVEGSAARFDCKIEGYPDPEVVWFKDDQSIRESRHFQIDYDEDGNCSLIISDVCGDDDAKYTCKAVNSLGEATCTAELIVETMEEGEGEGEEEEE
Sequence of Mitogen-activated protein kinase 14 (Q16539 whole entry): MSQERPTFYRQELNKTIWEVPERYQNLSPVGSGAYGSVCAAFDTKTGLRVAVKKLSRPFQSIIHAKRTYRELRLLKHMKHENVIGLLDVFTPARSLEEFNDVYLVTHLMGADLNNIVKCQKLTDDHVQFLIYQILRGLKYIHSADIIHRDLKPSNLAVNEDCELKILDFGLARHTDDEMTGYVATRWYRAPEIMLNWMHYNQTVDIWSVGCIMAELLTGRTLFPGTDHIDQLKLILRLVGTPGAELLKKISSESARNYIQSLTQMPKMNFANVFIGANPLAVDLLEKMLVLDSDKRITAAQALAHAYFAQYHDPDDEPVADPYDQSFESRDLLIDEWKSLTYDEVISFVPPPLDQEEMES
Sequence of Serine/threonine-protein kinase Nek7 (Homo sapiens) (Q8TDX7 whole entry, looked up): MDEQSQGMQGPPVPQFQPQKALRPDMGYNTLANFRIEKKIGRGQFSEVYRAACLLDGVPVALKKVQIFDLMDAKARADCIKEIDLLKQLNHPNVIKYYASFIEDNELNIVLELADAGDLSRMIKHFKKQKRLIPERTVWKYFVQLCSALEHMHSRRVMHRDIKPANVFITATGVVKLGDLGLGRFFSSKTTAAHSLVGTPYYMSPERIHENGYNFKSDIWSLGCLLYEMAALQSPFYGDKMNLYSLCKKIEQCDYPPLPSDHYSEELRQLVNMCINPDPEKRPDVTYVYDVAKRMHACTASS

On to `Cn1cc(-n2cnc3c(NCc4nc5cc(Cl)c(Cl)cc5[nH]4)nc(N4CCOCC4)nc32)cn1`, for which the % of control in test [1] was -10.9%. Moreover, the % of inhibition in test [2] is -1.03%.
For the compound `O=C(NOC[C@H](O)CO)c1ccc(F)c(F)c1Nc1ccc(I)cc1F`, the % of control in test [3] worked out at 82%.
For `COc1cc(N(C)c2ccnc3ccc(C(F)(F)F)cc23)cc(OC)c1OC`, in test [4], the % binding came out at 38%.
For the compound `Nc1cnc(N2CCc3cc(S(=O)(=O)Nc4c(F)cc(Cl)cc4F)cc(N4CCCC4=O)c32)nc1` [TP-020n], the % of control in test [5] was 78%.
`CC(=O)Nc1cccc(-n2c(=O)n(C3CC3)c(=O)c3c(Nc4ccc(I)cc4F)n(C)c(=O)c(C)c32)c1`: in test [6], the % of control was determined as 99%.
For the compound `Cc1cc(F)c(C(=O)Nc2cccc(-c3nncn3C(C)C)n2)cc1-n1cnc(C2CC2)c1`, the % of control in test [7] came to 100%.
Regarding `COCC(=O)NC/C=C/c1ccc2ncnc(Nc3ccc(Oc4ccc(C)nc4)c(C)c3)c2c1` [CP-724714], the % of control in test [8] amounted to 0.2%.
